Measured values as given in US20040259192A1, “Method for cleaving the human growth hormone gh” (priority 2001, published 2004).
“Also recorded” adds a separate entry of the source. Square brackets hold non-standard residues; d marks the D form. Ends that are not written are not given here. * marks the point of attachment. Sta = CC(C)C[C@H](N)[C@@H](O)CC(=O)O; Isovaleryl = CC(C)CC(=O)*

Key:
[1] = test system: MMP-3; assay: cleavage of human GH by MMP-3, SDS-PAGE, with or without protease inhibitors; assay type: biochemical; details: for influence on GH cleavage by MMP-3: inhibitor added in place of phenanthroline, concentration not given
Procedure: (§1) Human GH (SIGMA S-4776) was incubated with the recombinant catalytic domain of MMP-3 or with the activated full-length enzyme MMP-3 (EC 3.4.24.17) at a molar ratio of 50:1 at 37° C. overnight. 100 mM Tris-HCl, pH 7.5/100 mM NaCl/10 mM CaCl2/0.05% (w/v) Brij 35 served as incubation buffer. The following samples served as a control:
1. GH incubated with the same volume of buffer instead of MMP-3,
2. GH incubated with MMP-3 in the presence of 1 mM 1,10-phenanthroline (SIGMA P-9375) as MMP inhibitor.
(§2) The reaction is stopped by the addition of ¼ volume of 5 times reducing Laemmli buffer and incubation at 90° C. for 4 minutes. The samples were subsequently separated on a 15% SDS polyacrylamide gel according to a generally known method. The proteins were prepared by means of coomassie or silver staining.

[2] = biological target: MMP-9 (Homo sapiens, UniProt P14780); assay: cleavage of human GH by MMP-9, SDS-PAGE; assay type: biochemical; details: activated MMP-9; long incubation periods, different enzyme concentrations
Procedure: It was tested in an informing preliminary test whether MMP-9 can cleave human GH in vitro. As shown in Example 2, GH was in this case incubated with activated MMP-9 and subjected to PAA gel electrophoresis. […]
as §1, §2
(§3) In accordance with the method shown in Example 2, other human MMPs were also tested for checking the specificity of the GH cleavage by MMP-3.

[3] = biological target: MMP-8 (Homo sapiens, UniProt P22894); assay: cleavage of human GH by MMP-8, SDS-PAGE; assay type: biochemical; details: method of Example 2
Procedure: as §1, §2, §3

[4] = biological target: MMP-14 (Homo sapiens, UniProt P50281); assay: cleavage of human GH by MMP-14, SDS-PAGE; assay type: biochemical; details: method of Example 2
Procedure: as §1, §2, §3

[5] = biological target: T1, MMP-2 (Homo sapiens, UniProt P08253); assay: cleavage of human GH by MMP-2; assay type: biochemical
T1 sequence (P08253 110-660): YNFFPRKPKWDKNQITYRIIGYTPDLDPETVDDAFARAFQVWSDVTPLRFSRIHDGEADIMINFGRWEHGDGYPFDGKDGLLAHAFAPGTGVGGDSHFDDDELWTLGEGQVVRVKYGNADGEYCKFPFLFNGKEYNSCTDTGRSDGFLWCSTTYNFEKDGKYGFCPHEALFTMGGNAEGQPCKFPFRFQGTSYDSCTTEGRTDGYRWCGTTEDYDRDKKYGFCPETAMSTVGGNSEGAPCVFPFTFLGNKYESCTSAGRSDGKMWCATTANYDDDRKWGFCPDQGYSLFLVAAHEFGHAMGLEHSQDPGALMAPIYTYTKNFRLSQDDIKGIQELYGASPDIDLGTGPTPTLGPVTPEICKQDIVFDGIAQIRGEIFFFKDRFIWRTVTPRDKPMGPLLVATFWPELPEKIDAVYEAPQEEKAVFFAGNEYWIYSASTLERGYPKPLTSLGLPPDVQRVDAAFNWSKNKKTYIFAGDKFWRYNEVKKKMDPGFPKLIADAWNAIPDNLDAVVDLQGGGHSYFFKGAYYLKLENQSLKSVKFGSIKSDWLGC

[6] = test system: Human microvascular endothelial cells (HUVEC); assay: proliferation of human microvascular endothelial cells (cell number, Coulter Counter); assay type: cell-based; details: 24 hours
Procedure: Human microvascular endothelial cells (HUVEC) of the 3rd passage were kindly provided by Dr. Jurgen Salvetter (Leipzig University). These cells were prepared according to the information furnished by Norman and Karasek (49). HUVEC were used up to the 9th passage for the proliferation experiments. HUVEC were tested up to confluence in RPMI 1640 medium with additions of 10% (v/v) tested endotoxin-deficient fetal calf serum (Biochrom), 2 mM L-glutamine (GIBCO), 25 μg/ml endothelial cell growth supplement (SIGMA), 50 μg/ml streptomycin plus 50 units/ml penicillin (Life Technologies). The confluent cells were harvested by means of 5% trypsin/0.2% EDTA (BIOCHROM) at 37° C. for 5 minutes. A suspension of 10,000 cells in RPMI 1640 medium plus 2% (v/v) tested endotoxin-deficient fetal calf serum (Biochrom), 2 mM L-glutamine (GIBCO), 50 μg/ml streptomycin plus 50 units/ml penicillin (Life Technologies) were transferred to 24-well plates coated with 30 μg/ml type I collagen from calf skin (IBFB). […] The cells were washed with the same medium after 24 hours of incubation and removed using trypsin/EDTA and the cell number was determined in a Coulter Counter. […]

[7] = biological target: MMP-3 (Homo sapiens, UniProt P08254); assay: activation or inhibition of MMP-3 by substances; assay type: biochemical; set-up: inhibition (MMP-3): dose or concentration left out as unconfirmed; details: for inhibition at 10 µM: with 10 μM
Chain of MMP-3 (Homo sapiens, UniProt P08254) (P08254 100-477): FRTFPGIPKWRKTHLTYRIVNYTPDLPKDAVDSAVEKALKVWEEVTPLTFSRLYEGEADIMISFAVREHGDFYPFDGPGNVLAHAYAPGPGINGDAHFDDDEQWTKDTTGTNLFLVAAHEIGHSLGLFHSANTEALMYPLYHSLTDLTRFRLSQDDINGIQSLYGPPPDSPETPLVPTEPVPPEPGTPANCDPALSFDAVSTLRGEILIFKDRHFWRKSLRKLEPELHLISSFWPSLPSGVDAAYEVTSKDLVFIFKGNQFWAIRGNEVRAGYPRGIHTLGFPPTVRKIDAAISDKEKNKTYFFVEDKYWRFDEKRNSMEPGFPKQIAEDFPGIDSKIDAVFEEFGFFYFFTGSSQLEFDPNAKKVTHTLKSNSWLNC

Chain of MMP-9 (P14780 107-707 limits assumed): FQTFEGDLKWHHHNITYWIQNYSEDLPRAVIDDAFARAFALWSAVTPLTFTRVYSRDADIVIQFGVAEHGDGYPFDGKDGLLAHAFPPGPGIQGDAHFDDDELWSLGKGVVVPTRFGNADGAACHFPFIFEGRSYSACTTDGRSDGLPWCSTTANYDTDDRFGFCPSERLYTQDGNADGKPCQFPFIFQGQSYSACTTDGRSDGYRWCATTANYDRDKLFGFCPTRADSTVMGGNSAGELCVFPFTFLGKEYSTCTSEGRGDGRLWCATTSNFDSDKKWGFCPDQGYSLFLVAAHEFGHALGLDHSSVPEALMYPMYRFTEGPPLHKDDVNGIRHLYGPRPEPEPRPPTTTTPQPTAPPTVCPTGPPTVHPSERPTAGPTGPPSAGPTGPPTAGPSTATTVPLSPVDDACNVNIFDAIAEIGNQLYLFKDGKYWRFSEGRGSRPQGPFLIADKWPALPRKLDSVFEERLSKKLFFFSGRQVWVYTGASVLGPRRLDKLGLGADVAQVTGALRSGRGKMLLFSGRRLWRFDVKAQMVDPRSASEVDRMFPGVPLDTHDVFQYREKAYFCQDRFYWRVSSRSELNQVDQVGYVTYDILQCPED
Chain of MMP-8 (P22894 101-467): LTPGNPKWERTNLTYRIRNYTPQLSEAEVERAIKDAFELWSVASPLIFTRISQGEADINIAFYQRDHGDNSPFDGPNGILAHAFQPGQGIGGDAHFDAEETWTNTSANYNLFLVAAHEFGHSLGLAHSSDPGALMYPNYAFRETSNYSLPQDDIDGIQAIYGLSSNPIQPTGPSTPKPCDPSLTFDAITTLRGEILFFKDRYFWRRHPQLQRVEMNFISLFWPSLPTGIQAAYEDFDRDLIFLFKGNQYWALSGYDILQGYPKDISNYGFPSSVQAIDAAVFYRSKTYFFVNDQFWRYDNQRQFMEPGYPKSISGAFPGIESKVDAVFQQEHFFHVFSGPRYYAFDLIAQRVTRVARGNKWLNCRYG

GH: Human GH, 22 kDa peptide hormone composed of a single polypeptide chain (SIGMA S-4776)
cleavage of GH by MMP-3 ([1]; molar ratio 50:1, 37° C. overnight, pH 7.5): cleaved by MMP-3 into two fragments of 16 kDa and 6 kDa; also recorded: cleaves GH into the typical 16 kDa fragment
cleavage of GH by MMP-9 [2]: not possible to prove cleavage; also recorded: no degrading effect
cleavage of GH by MMP-8 [3]: no degrading effect
cleavage of GH by MMP-14 [4]: no degrading effect
cleavage of GH by MMP-2 [5]: no, or only minor, degradative effects
proliferation of HUVEC ([6]; 40 ng/ml): marked proliferative effect

O=c1c2ccc(Cl)cc2nc2n1CC(CS)S2 (racemic) [(R,S)-8-chloro-2-mercaptomethyl-2,3-dihydro-thiazolo[2,3-b]quinazoline-5-one]
inhibition at 10 µM [7]: 80%

bFGF: human recombinant bFGF (BIOCHROM), positive control [reference compound]
proliferation of HUVEC ([6]; 20 ng/ml): stimulates the proliferation

O=c1c2ccccc2nc2n1CC(CS)S2 (racemic) [(R,S)-2-mercaptomethyl-2,3-dihydro-thiazolo[2,3-b]quinazoline-5-one]
inhibition at 10 µM [7]: 50%

Cn1c(=O)n(CCCS)c(=O)c2ccccc21 [3-(3-mercaptopropyl)-1-methyl-(1H,3H)quinazoline-2,4-dione]
activation of MMP-3 [7]: about 20%

O=c1[nH]c(=O)n(CC(S)CS)c2ccccc12 (racemic) [(R,S)-1-(2′,3′-dimercapto-prop-1′-yl)quinazoline-2,4(1H,3H)-dione]
inhibition at 4 µM ([7]; with 4.0 μM): 75%

Isovaleryl-VV[Sta]A[Sta] [pepstatin A]
influence on GH cleavage by MMP-3 [1]: no influence

c1cnc2c(c1)ccc1cccnc12 [phenanthroline, 1,10-phenanthroline]
GH cleavage by MMP-3 in the presence of inhibitor ([1]; 1 mM inhibitor, GH:MMP-3 50:1, 37° C. overnight, pH 7.5): not cleaved

CC(C)C[C@H](NC(=O)[C@H]1O[C@@H]1C(=O)O)C(=O)NCCCCN=C(N)N (relative stereo) [E-64, trans-epoxysuccinyl-L-leucylamido-(4-guanidino)butane]
influence on GH cleavage by MMP-3 [1]: no influence

CC1(CS)Cn2c(nc3ccccc3c2=O)S1 (racemic) [(R,S)-2-mercaptomethyl-2-methyl-2,3-dihydro-thiazolo[2,3-b]quinazoline-5-one]
inhibition (MMP-3) [7]: 60%

O=S1(=O)NC(NCCS)=Nc2ccccc21 [3-(2′-mercaptoethylamino)-2H-1,2,4-benzothiadiazine-1,1-dioxide]
activation of MMP-3 [7]: about 20%
